Test results taken from paper PMC10465233, “Lys-urea-Aad, Lys-urea-Cmc and Lys-urea-Cms as potential pharmacophores for the design of PSMA-targeted radioligands to reduce off-target uptake in kidneys and salivary glands” (Theranostics, 2023).
Where “and” joins values, the source holds several entries; their conditions need not be identical. Identical values can stand only once.

Experiments:
PSMA = target: T1, PSMA (Homo sapiens, UniProt Q04609); parameters: method as in PMID 36168623; details: LNCaP cells; cited from earlier work
T1 construct: host or cells: LNCaP prostate cancer cells

LNCaP tumor-bearing mice [1] = experiment: Ex vivo biodistribution in LNCaP tumor-bearing mice; parameters: species or system mouse; details: 1 h post-injection; for Reduction of average kidney uptake by co-injection of DCFPyL: DCFPyL 0.5 mg
Outline: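 Male NSG or NRG mice bearing subcutaneous LNCaP tumours (5-8 mm) were injected with 2-4 MBq radioligand, with 0.5 mg nonradioactive DCFPyL co-injected for blocking. At set time points, blood and organs were collected, weighed and gamma-counted.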

LNCaP tumor-bearing mice [2] = experiment: PET/CT imaging in LNCaP tumor-bearing mice; format: in vivo, mouse; details: 1 h post-injection
Experimental: Imaging, biodistribution and radioligand therapy experiments were performed following previously published procedures using male NOD-scid IL2Rg^null (NSG) or NOD.Cg-Rag1^tm1MomIl2rg^tm1Wjl/SzJ (NRG) mice [10]-[12],[14]-[15]. The experiments were conducted according to the guidelines established by the Canadian Council on Animal Care and approved by Animal Ethics Committee of the University of British Columbia. The mice were briefly sedated by inhalation of 2% isoflurane in oxygen, and implanted subcutaneously with 1×10^7 LNCaP cells behind the left shoulder. The mice were imaged or used in biodistribution studies when the tumor grew to 5-8 mm in diameter over a period of 4-5 weeks.
PET/CT imaging experiments were conducted using a Siemens (Knoxville, TN, USA) Inveon micro PET/CT scanner. Each tumor-bearing mouse was injected with ~6-8 MBq of ^68Ga-labeled tracer through a lateral caudal tail vein. After 50 min post-injection, a 10-min CT scan was conducted first for localization and attenuation correction after segmentation for reconstructing the PET images, followed by a 10-min static PET imaging acquisition.

22Rv1 tumor model = tested on: 22Rv1 tumor model; parameters: method as in PMID 34453203; details: 1 h post-injection, 22Rv1, BALB/c nude; cited from earlier work
[3] = blocked, co-injected with DCFPyL (0.5 mg)

T1 sequence (Q04609 whole entry): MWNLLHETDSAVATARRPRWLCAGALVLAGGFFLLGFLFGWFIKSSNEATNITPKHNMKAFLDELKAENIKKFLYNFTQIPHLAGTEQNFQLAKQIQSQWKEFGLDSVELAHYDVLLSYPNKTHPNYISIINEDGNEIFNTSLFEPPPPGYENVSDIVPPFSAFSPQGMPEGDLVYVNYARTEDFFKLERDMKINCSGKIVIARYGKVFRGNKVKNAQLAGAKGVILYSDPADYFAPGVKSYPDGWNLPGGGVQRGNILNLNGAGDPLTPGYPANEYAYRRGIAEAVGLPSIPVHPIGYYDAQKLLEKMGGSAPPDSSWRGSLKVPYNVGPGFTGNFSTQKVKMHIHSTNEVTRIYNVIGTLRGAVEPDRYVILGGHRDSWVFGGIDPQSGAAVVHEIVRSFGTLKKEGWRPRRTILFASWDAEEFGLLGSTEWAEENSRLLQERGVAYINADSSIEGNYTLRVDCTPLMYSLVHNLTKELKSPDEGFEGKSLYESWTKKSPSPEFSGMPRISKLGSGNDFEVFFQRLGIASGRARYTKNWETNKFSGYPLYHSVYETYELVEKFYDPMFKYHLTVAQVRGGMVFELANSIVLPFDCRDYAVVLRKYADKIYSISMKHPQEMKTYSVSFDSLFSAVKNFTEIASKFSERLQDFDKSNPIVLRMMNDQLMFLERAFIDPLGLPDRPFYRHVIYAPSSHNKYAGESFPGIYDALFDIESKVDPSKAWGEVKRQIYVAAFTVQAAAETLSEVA

O=C([O-])CN1CCN(CC(=O)[O-])CCN(CC(=O)NCC2CCC(C(=O)NC(Cc3c4ccccc4cc4ccccc34)C(=O)NCCCCC(NC(=O)NC(CCCC(=O)O)C(=O)O)C(=O)O)CC2)CCN(CC(=O)[O-])CC1.[Ga+3] (stereo not drawn) [Ga-HTK03149]
Ki (PSMA): 6.99 ± 0.8 nM

O=C([O-])CN1CCN(CC(=O)[O-])CCN(CC(=O)NCC2CCC(C(=O)NC(Cc3c4ccccc4cc4ccccc34)C(=O)NCCCCC(NC(=O)NC(CSCC(=O)O)C(=O)O)C(=O)O)CC2)CCN(CC(=O)[O-])CC1.[68Ga+3] (stereo not drawn) [[^68Ga]Ga-HTK03177]
Adrenal glands uptake (LNCaP tumor-bearing mice [1]): 0.46 ± 0.17 %ID/g
Blood uptake (LNCaP tumor-bearing mice [1]): 0.70 ± 0.06 %ID/g
Blood:Salivary gland uptake ratio (LNCaP tumor-bearing mice [1]): 3.14 ± 0.19
Bone uptake (LNCaP tumor-bearing mice [1]): 0.10 ± 0.03 %ID/g
Brain uptake (LNCaP tumor-bearing mice [1]): 0.02 ± 0.00 %ID/g
Fat uptake (LNCaP tumor-bearing mice [1]): 0.09 ± 0.04 %ID/g
Heart uptake (LNCaP tumor-bearing mice [1]): 0.21 ± 0.01 %ID/g
Intestines uptake (LNCaP tumor-bearing mice [1]): 0.21 ± 0.02 %ID/g
Kidneys uptake (LNCaP tumor-bearing mice [1]): 7.76±1.00 %ID/g and < 8.0 %ID/g
Lacrimal glands uptake (LNCaP tumor-bearing mice [1]): 0.12 ± 0.06 %ID/g
Liver uptake (LNCaP tumor-bearing mice [1]): 0.33 ± 0.20 %ID/g
Lungs uptake (LNCaP tumor-bearing mice [1]): 0.61 ± 0.08 %ID/g
Muscle uptake (LNCaP tumor-bearing mice [1]): 0.10 ± 0.01 %ID/g
Pancreas uptake (LNCaP tumor-bearing mice [1]): 0.14 ± 0.01 %ID/g
Salivary glands uptake (LNCaP tumor-bearing mice [1]): 0.22±0.02 %ID/g and < 0.25 %ID/g
Spleen uptake (LNCaP tumor-bearing mice [1]): 0.42 ± 0.15 %ID/g
Stomach uptake (LNCaP tumor-bearing mice [1]): 0.15 ± 0.09 %ID/g
Testes uptake (LNCaP tumor-bearing mice [1]): 0.25 ± 0.07 %ID/g
Thyroid uptake (LNCaP tumor-bearing mice [1]): 0.23 ± 0.01 %ID/g
Tumor uptake (LNCaP tumor-bearing mice [1]): 24.7±6.85 %ID/g and 21-25 %ID/g
Tumor:Blood uptake ratio (LNCaP tumor-bearing mice [1]): 36.1±12.5
Tumor:Kidney uptake ratio (LNCaP tumor-bearing mice [1]): 3.25±1.16
Tumor:Muscle uptake ratio (LNCaP tumor-bearing mice [1]): 265±103
Tumor:Salivary gland uptake ratio (LNCaP tumor-bearing mice [1]): 112±33.1
Adrenal glands uptake (LNCaP tumor-bearing mice [1]; [3]): 0.61 ± 0.38 %ID/g
Blood uptake (LNCaP tumor-bearing mice [1]; [3]): 0.85 ± 0.15 %ID/g
Blood:Salivary gland uptake ratio (LNCaP tumor-bearing mice [1]; [3]): 6.07 ± 2.53
Bone uptake (LNCaP tumor-bearing mice [1]; [3]): 0.24 ± 0.17 %ID/g
Brain uptake (LNCaP tumor-bearing mice [1]; [3]): 0.02 ± 0.00 %ID/g
Fat uptake (LNCaP tumor-bearing mice [1]; [3]): 0.20 ± 0.16 %ID/g
Heart uptake (LNCaP tumor-bearing mice [1]; [3]): 0.23 ± 0.04 %ID/g
Intestines uptake (LNCaP tumor-bearing mice [1]; [3]): 0.69 ± 0.76 %ID/g
Kidneys uptake (LNCaP tumor-bearing mice [1]; [3]): 1.73 ± 0.36 %ID/g
Lacrimal glands uptake (LNCaP tumor-bearing mice [1]; [3]): 0.15 ± 0.10 %ID/g
Liver uptake (LNCaP tumor-bearing mice [1]; [3]): 0.37 ± 0.22 %ID/g
Lungs uptake (LNCaP tumor-bearing mice [1]; [3]): 0.54 ± 0.06 %ID/g
Muscle uptake (LNCaP tumor-bearing mice [1]; [3]): 0.13 ± 0.05 %ID/g
Pancreas uptake (LNCaP tumor-bearing mice [1]; [3]): 0.54 ± 0.54 %ID/g
Salivary glands uptake (LNCaP tumor-bearing mice [1]; [3]): 0.15 ± 0.04 %ID/g
Spleen uptake (LNCaP tumor-bearing mice [1]; [3]): 0.25 ± 0.18 %ID/g
Stomach uptake (LNCaP tumor-bearing mice [1]; [3]): 0.12 ± 0.05 %ID/g
Testes uptake (LNCaP tumor-bearing mice [1]; [3]): 0.36 ± 0.14 %ID/g
Thyroid uptake (LNCaP tumor-bearing mice [1]; [3]): 0.21 ± 0.06 %ID/g
Tumor uptake (LNCaP tumor-bearing mice [1]; [3]): 0.74 ± 0.12 %ID/g
Tumor:Blood uptake ratio (LNCaP tumor-bearing mice [1]; [3]): 0.89 ± 0.19
Tumor:Kidney uptake ratio (LNCaP tumor-bearing mice [1]; [3]): 0.43 ± 0.05
Tumor:Muscle uptake ratio (LNCaP tumor-bearing mice [1]; [3]): 5.50 ± 2.68
Tumor:Salivary gland uptake ratio (LNCaP tumor-bearing mice [1]; [3]): 5.05 ± 0.77
Reduction of average kidney uptake by co-injection of DCFPyL (LNCaP tumor-bearing mice [1]): 78%
Kidney uptake in PET images (LNCaP tumor-bearing mice [2]): moderate

O=C([O-])CN1CCN(CC(=O)[O-])CCN(CC(=O)NCC2CCC(C(=O)NC(Cc3c4ccccc4cc4ccccc34)C(=O)NCCCCC(NC(=O)NC(COCC(=O)O)C(=O)O)C(=O)O)CC2)CCN(CC(=O)[O-])CC1.[68Ga+3] (stereo not drawn) [[^68Ga]Ga-HTK03187]
Adrenal glands uptake (LNCaP tumor-bearing mice [1]): 0.26 ± 0.06 %ID/g
Blood uptake (LNCaP tumor-bearing mice [1]): 0.67 ± 0.10 %ID/g
Blood:Salivary gland uptake ratio (LNCaP tumor-bearing mice [1]): 4.27 ± 0.74
Bone uptake (LNCaP tumor-bearing mice [1]): 0.13 ± 0.03 %ID/g
Brain uptake (LNCaP tumor-bearing mice [1]): 0.02 ± 0.00 %ID/g
Fat uptake (LNCaP tumor-bearing mice [1]): 0.07 ± 0.02 %ID/g
Heart uptake (LNCaP tumor-bearing mice [1]): 0.19 ± 0.04 %ID/g
Intestines uptake (LNCaP tumor-bearing mice [1]): 0.23 ± 0.05 %ID/g
Lacrimal glands uptake (LNCaP tumor-bearing mice [1]): 0.09 ± 0.03 %ID/g
Liver uptake (LNCaP tumor-bearing mice [1]): 0.21 ± 0.05 %ID/g
Lungs uptake (LNCaP tumor-bearing mice [1]): 0.52 ± 0.09 %ID/g
Muscle uptake (LNCaP tumor-bearing mice [1]): 0.09 ± 0.01 %ID/g
Pancreas uptake (LNCaP tumor-bearing mice [1]): 0.12 ± 0.02 %ID/g
Salivary glands uptake (LNCaP tumor-bearing mice [1]): 0.16±0.02 %ID/g and < 0.25 %ID/g
Spleen uptake (LNCaP tumor-bearing mice [1]): 0.17 ± 0.02 %ID/g
Stomach uptake (LNCaP tumor-bearing mice [1]): 0.08 ± 0.05 %ID/g
Testes uptake (LNCaP tumor-bearing mice [1]): 0.15 ± 0.03 %ID/g
Thyroid uptake (LNCaP tumor-bearing mice [1]): 0.18 ± 0.02 %ID/g
Tumor uptake (LNCaP tumor-bearing mice [1]): 21.1±3.62 %ID/g and 21-25 %ID/g
Tumor:Blood uptake ratio (LNCaP tumor-bearing mice [1]): 32.2±8.53
Tumor:Kidney uptake ratio (LNCaP tumor-bearing mice [1]): 7.67±2.10
Tumor:Muscle uptake ratio (LNCaP tumor-bearing mice [1]): 249±61.2
Tumor:Salivary gland uptake ratio (LNCaP tumor-bearing mice [1]): 133±14.0
Adrenal glands uptake (LNCaP tumor-bearing mice [1]; [3]): 0.13 ± 0.06 %ID/g
Blood uptake (LNCaP tumor-bearing mice [1]; [3]): 0.33 ± 0.16 %ID/g
Blood:Salivary gland uptake ratio (LNCaP tumor-bearing mice [1]; [3]): 3.64 ± 0.44
Bone uptake (LNCaP tumor-bearing mice [1]; [3]): 0.06 ± 0.02 %ID/g
Brain uptake (LNCaP tumor-bearing mice [1]; [3]): 0.01 ± 0.00 %ID/g
Fat uptake (LNCaP tumor-bearing mice [1]; [3]): 0.06 ± 0.04 %ID/g
Heart uptake (LNCaP tumor-bearing mice [1]; [3]): 0.10 ± 0.05 %ID/g
Intestines uptake (LNCaP tumor-bearing mice [1]; [3]): 0.13 ± 0.03 %ID/g
Kidneys uptake (LNCaP tumor-bearing mice [1]; [3]): 1.15 ± 0.37 %ID/g
Lacrimal glands uptake (LNCaP tumor-bearing mice [1]; [3]): 0.06 ± 0.03 %ID/g
Liver uptake (LNCaP tumor-bearing mice [1]; [3]): 0.16 ± 0.05 %ID/g
Lungs uptake (LNCaP tumor-bearing mice [1]; [3]): 0.31 ± 0.10 %ID/g
Muscle uptake (LNCaP tumor-bearing mice [1]; [3]): 0.08 ± 0.06 %ID/g
Pancreas uptake (LNCaP tumor-bearing mice [1]; [3]): 0.07 ± 0.02 %ID/g
Salivary glands uptake (LNCaP tumor-bearing mice [1]; [3]): 0.09 ± 0.04 %ID/g
Spleen uptake (LNCaP tumor-bearing mice [1]; [3]): 0.12 ± 0.03 %ID/g
Stomach uptake (LNCaP tumor-bearing mice [1]; [3]): 0.03 ± 0.01 %ID/g
Testes uptake (LNCaP tumor-bearing mice [1]; [3]): 0.15 ± 0.01 %ID/g
Thyroid uptake (LNCaP tumor-bearing mice [1]; [3]): 0.12 ± 0.05 %ID/g
Tumor uptake (LNCaP tumor-bearing mice [1]; [3]): 0.35 ± 0.09 %ID/g
Tumor:Blood uptake ratio (LNCaP tumor-bearing mice [1]; [3]): 1.14 ± 0.25
Tumor:Kidney uptake ratio (LNCaP tumor-bearing mice [1]; [3]): 0.31 ± 0.08
Tumor:Muscle uptake ratio (LNCaP tumor-bearing mice [1]; [3]): 5.34 ± 2.25
Tumor:Salivary gland uptake ratio (LNCaP tumor-bearing mice [1]; [3]): 4.13 ± 0.92
Tumor uptake (LNCaP tumor-bearing mice [1]; listed as [^68Ga]HTK03187): ~ 20 %ID/g
Reduction of average kidney uptake by co-injection of DCFPyL (LNCaP tumor-bearing mice [1]): 59%
Kidney uptake in PET images (LNCaP tumor-bearing mice [2]): relatively lower

O=C([O-])CN1CCN(CC(=O)[O-])CCN(CC(=O)NCC2CCC(C(=O)NC(Cc3ccc4ccccc4c3)C(=O)NCCCCC(NC(=O)NC(CCC(=O)O)C(=O)O)C(=O)O)CC2)CCN(CC(=O)[O-])CC1.[68Ga+3] (stereo not drawn) [[^68Ga]Ga-PSMA-617]
Tumor uptake (22Rv1 tumor model): 3.41±1.31 %ID/g
